The results in this text go back to patent US6545049B1, “Dimer-selective RXR modulators and methods for their use” (Ligand Pharmaceuticals Incorporated, priority 1995, dated 2003).

Data set [1] deals with T1, RXRα (Homo sapiens, UniProt P19793).
T1 sequence (P19793 1-462): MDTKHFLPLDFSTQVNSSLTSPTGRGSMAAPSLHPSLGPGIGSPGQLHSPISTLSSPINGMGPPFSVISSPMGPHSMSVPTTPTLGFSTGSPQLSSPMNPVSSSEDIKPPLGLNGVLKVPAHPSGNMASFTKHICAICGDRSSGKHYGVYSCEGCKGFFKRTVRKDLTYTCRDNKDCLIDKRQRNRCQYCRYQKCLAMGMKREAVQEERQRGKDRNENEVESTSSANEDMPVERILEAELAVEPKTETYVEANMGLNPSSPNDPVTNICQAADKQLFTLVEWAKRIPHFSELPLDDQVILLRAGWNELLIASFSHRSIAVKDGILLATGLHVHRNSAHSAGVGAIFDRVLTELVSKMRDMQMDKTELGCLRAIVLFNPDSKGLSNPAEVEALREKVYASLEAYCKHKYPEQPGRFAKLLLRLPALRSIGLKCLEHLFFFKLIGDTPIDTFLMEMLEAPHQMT
The experiment in a line: RXR binding, RXRα. The note with it: -v- tritiated LGD1069 and tritiated 9-cis retinoic acid. As to the method:
(§1) Non-specific binding was defined as that binding remaining in the presence of 500 nM of the appropriate unlabelled compound. At the end of the incubation period, bound from free ligand were separated. The amount of bound tritiated retinoids was determined by liquid scintillation counting of an aliquot (700 μL) of the supernatant fluid or the hydroxylapatite pellet.
(§2) After correcting for non-specific binding, IC50 values were determined. […] The IC50 value was determined graphically from a log-logit plot of the data. The Kd values were determined by application of the Cheng-Prussof equation to the IC50 values, the labeled ligand concentration and the Kd of the labeled ligand.

Data set [2] deals with T2, RXRβ (Mus musculus, UniProt P28704).
T2 sequence (P28704 1-520): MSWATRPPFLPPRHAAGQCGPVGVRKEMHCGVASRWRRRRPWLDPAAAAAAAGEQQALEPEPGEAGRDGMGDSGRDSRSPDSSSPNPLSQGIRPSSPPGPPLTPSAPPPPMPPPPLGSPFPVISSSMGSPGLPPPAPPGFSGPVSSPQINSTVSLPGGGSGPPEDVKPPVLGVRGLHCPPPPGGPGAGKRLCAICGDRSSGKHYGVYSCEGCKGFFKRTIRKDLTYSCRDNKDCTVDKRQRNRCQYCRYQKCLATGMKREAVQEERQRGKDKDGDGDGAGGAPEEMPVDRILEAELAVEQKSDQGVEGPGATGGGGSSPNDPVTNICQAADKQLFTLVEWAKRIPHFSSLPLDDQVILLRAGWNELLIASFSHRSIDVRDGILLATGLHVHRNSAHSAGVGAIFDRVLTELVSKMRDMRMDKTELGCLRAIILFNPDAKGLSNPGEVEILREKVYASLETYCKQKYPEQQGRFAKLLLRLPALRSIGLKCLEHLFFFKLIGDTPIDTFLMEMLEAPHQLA
The experiment in a line: RXR binding, RXRβ. The following applies: -v- tritiated LGD1069 and tritiated 9-cis retinoic acid. The procedure: as §1, §2

The target of data set [3] is T3, RXRγ (Mus musculus, UniProt P28705).
T3 sequence (P28705 1-463): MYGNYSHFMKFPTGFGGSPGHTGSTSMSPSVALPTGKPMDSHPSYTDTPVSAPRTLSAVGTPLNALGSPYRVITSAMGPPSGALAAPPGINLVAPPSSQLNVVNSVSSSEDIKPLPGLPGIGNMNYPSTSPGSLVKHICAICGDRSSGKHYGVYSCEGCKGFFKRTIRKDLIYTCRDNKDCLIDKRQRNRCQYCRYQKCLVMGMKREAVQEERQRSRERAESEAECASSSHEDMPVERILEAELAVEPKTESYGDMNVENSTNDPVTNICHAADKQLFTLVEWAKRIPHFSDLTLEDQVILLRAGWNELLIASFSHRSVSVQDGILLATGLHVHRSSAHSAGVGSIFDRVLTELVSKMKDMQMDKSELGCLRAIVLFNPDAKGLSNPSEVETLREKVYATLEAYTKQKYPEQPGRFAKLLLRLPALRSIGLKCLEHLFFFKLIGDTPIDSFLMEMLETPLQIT
The experiment in a line: RXR binding, RXRγ. The following applies: -v- tritiated LGD1069 and tritiated 9-cis retinoic acid. As to the method:
as §1, §2

The target of data set [4] is T1, RXRα. Nature of the data set: RXR homodimer co-transfection assay, antagonist mode, RXRα. The note with it: read-out: RXRα Potency IC50; antagonist potency in the presence of the known RXR agonist LGD1069; CV-1 cells.
Data set [5] has as its target T2, RXRβ. Nature of the data set: RXR homodimer co-transfection assay, antagonist mode, RXRβ. The following applies: read-out: RXRβ Potency IC50; antagonist potency in the presence of the known RXR agonist LGD1069; CV-1 cells.
The target of data set [6] is T3, RXRγ. Nature of the data set: RXR homodimer co-transfection assay, antagonist mode, RXRγ. The note with it: read-out: RXRγ Potency IC50; antagonist potency in the presence of the known RXR agonist LGD1069; CV-1 cells.
In data set [7] the target is T4, RXRα:PPARα heterodimer (Homo sapiens, UniProt P19793).
T4 sequence (P19793 1-462): T1 sequence (P19793 1-462)
T4 sequence (Q07869 1-468 partner): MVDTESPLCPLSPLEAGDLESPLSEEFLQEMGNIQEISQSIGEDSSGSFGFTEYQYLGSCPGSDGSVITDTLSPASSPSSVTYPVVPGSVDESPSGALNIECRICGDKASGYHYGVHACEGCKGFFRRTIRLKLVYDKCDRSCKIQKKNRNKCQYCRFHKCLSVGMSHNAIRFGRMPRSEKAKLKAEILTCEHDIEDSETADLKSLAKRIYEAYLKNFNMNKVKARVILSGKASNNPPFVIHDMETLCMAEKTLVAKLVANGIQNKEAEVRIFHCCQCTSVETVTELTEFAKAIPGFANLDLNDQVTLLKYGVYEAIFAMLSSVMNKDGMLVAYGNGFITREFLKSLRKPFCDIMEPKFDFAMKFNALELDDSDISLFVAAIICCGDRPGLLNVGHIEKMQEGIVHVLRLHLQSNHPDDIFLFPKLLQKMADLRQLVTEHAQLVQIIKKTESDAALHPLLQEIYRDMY
The experiment in a line: RXR heterodimer co-transfection assay (RXRα and PPARα, PPARα response element reporter).

As a reminder, the Kd is the concentration at which binding is half-saturated. The low end stands for tighter binding, the high end for weaker binding. The term IC50 denotes the concentration needed to halve the response being measured. As usually defined, the EC50 is the concentration needed to bring the measured effect to its halfway point. The melting point is the temperature, or range, at which the solid turns liquid.

“4-[(3-n-propyl-5,6,7,8-tetrahydro-5,5,8,8-tetramethyl-2-naphthyl)ethenyl]benzoic acid [Compound 102]”: the Kd in data set [1] turned out to be 0.282 µM; in data set [2], 0.426 µM; in data set [3], 0.683 µM. In addition, the IC50 is 0.386 µM in data set [4], 0.659 µM in data set [5] and 1.67 µM in data set [6].
Consider “4-[(3-propoxy-5,6,7,8-tetrahydro-5,5,8,8-tetramethyl-2-naphthyl)carbonyl]benzoic acid O-methyloxime [Compound 110]”, for which the values for the Kd in data set [1], in data set [2] and in data set [3] were 0.04 µM, 0.077 µM and 0.066 µM, respectively. Moreover, the IC50 worked out at 0.08 µM in data set [4], 0.217 µM in data set [5] and 0.211 µM in data set [6].
As for “4-[(3-propoxy-5,6,7,8-tetrahydro-5,5,8,8-tetramethyl-2-naphthyl)carbonyl]benzoic acid oxime [Compound 109]”, the values for the Kd in data set [1], in data set [2] and in data set [3] were 0.037 µM, 0.033 µM and 0.047 µM, respectively. The IC50 came out at 0.21 µM in data set [4], 0.193 µM in data set [5] and 0.394 µM in data set [6].
For `CC(C)(Oc1ccc(Cl)cc1)C(=O)O` [Clofibric acid, clofibric acid, reference compound], a half-maximal response in data set [7] (EC50) required 40 µM. Moreover, in data set [7] (normalized luciferase values at 10−4M (clofibric acid) divided by values with vehicle), the Fold activation was determined as 6.5 fold.
As for `CCCc1cc2c(cc1C1(c3ccc(C(=O)O)cc3)CC1)C(C)(C)CCC2(C)C` [Compound 103, 4-[(3-n-propyl-5,6,7,8-tetrahydro-5,5,8,8-tetramethyl-2-naphthyl)cyclopropyl]benzoic acid], the Kd in data set [1] was determined as 0.389 µM; in data set [2], 0.846 µM; in data set [3] it was 0.936 µM. Also, the IC50 in data set [4] came out at 0.498 µM; in data set [5] it was 0.701 µM; in data set [6], 1.67 µM.
For the compound `CC(C=CC=C(C)c1cc2c(cc1OCc1ccccc1)C(C)(C)CCC2(C)C)=CC(=O)O` [Compound 128, (2E, 4E, 6Z)-7-[3-benzyloxy-5,6,7,8-tetrahydro-5,5,8,8-tetramethyl-2-naphthalen-2-yl]-3-methylocta-2,4,6-trienoic acid], the Kd came out at 0.009 µM in data set [1], 0.023 µM in data set [2] and 0.027 µM in data set [3]. The same compound showed an EC50 in data set [7] of 0.2 µM. In data set [7] (normalized luciferase values at 10−5M divided by values with vehicle), this compound displayed a Fold activation of 4 fold.
As for `CCCOc1cc2c(cc1C1CC1C/C=C/C(C)=C/C(=O)O)C(C)(C)CCC2(C)C` (stereo not drawn) [Compound 152, (2E, 4E)-6-[2-(5,5,8,8-tetramethyl-3-propyloxy-5,6,7,8-tetrahydronaphthalen-2-yl)cyclopropan-1-yl]-3-methyl hexadienoic acid], the values for the Kd in data set [1], in data set [2] and in data set [3] were 0.008 µM, 0.045 µM and 0.021 µM, respectively. For the same compound, the IC50 in data set [4] came out at 0.195 µM; in data set [5], 0.337 µM; in data set [6], 0.428 µM.
In turn, `CC1(C)CCC(C)(C)c2cc(C(=O)c3ccc(C(=O)NO)cc3)c(OCc3ccc(Br)cc3)cc21` [Compound 161, 4-[(3-(4-bromobenzyloxy)-5,6,7,8-tetrahydro-5,5,8,8-tetramethyl-2-naphthyl)carbonyl]benzoic acid oxime] showed a melting point of 221 to 223.5 °C.
Still for that read-out and setting: then `CC1(C)CCC(C)(C)c2cc(C3(c4ccc(C(=O)O)cc4)OCCO3)c(OCc3ccccc3)cc21` [Compound 164, 4-[2-(3-benzyloxy-5,6,7,8-tetrahydro-5,5,8,8-tetramethyl-2-naphthyl)-[1,3]dioxolan-2-yl]benzoic acid], with 222 to 228 °C (dec.).
Consider “(2E, 4E)-7-[(5,5,8,8-tetramethyl-3-heptyloxy-5,6,7,8-tetrahydronaphthalen-2-yl)cyclopropan-1-yl]-3-methyl heptadienoic acid [Compound 156]”, for which the Kd is 0.011 µM in data set [1], 0.007 µM in data set [2] and 0.009 µM in data set [3]. The IC50 in data set [4] amounted to 0.018 µM; in data set [5], 0.062 µM; in data set [6], 0.047 µM.
For “(2E, 4E)-7-[(5,5,8,8-tetramethyl-3-propyloxy-5,6,7,8-tetrahydronaphthalen-2-yl)cyclopropan-1-yl]-3-methyl heptadienoic acid [Compound 155]”, the Kd in data set [1] was determined as 0.009 µM; in data set [2] it was 0.009 µM; in data set [3], 0.008 µM. The figures for the IC50 in data set [4], in data set [5] and in data set [6] were 0.024 µM, 0.053 µM and 0.037 µM, respectively.
